Test results: US11912706B2, “Crystal forms of a POL1 inhibitor” (PIMERA, INC., priority 2017, dated 2024)
Converted amounts (≈) assume the structure as drawn. Blank lines part the entries; values can stand above or below the molecule they belong to.

What was measured:
Assay type in all cases: physicochemical
[1] = 7 day stability test of crystal forms (PXRD post storage); details: 7-day storage
Description: 10 mg of Forms 1, 2, 3, 4 and 5 were weighed out into separate vials.
[…] After completion, PXRD analysis was performed on each of these samples.

[2] = Further stability studies of Form 1 (2 and 4 weeks; PXRD, NMR, HPLC)
Description: 10 mg of Form 1 was weighed out into each of 12 vials. […] vials were placed in each storage condition of: (1) 40° C. with an open cap; (2) 75% RH with an open cap; (3) 50° C. with a closed cap; and (4) room temperature with a closed cap.
Two (2) vials were extracted at each time point of 2 and 4 weeks and PXRD, NMR and HPLC analysis was performed.

[3] = Rapid solvent solubility screen; details: thermodynamic from solid
Description: Thirteen solvents were chosen for a rapid solvent solubility screen (See, Table 1). 10 mg of multiphasic Compound (I) prepared according to Example 1 was placed in each of 13 vials and 5 volume aliquots of the appropriate solvent systems were added to each vial.
Between each addition, the mixture was checked for dissolution and if no dissolution was apparent, the mixture was heated to 40° C. and checked again. This procedure was continued until dissolution was observed or until 100 volumes of solvent had been added.

[4] = Gravimetric Vapor Sorption (GVS); details: up to 90% relative humidity (RH)
Description: Approximately 10-20 mg of sample was placed into a mesh vapor sorption balance pan and loaded into an IGAsorp Moisture Sorption Analyzer balance by Hiden Analytical.
The sample was subjected to a ramping profile from 40% to 90% relative humidity (RH) at 10% increments, maintaining the sample at each step until a stable weight had been achieved (98% step completion). After completion of the sorption cycle, the sample was dried using the same procedure to 0% RH, and finally taken back to the starting point of 40% RH. The weight change during the sorption/desorption cycles was plotted, allowing for the hygroscopic nature of the sample to be determined.

[5] = Competitive slurrying of Form 1 and Form 5; details: dichloromethane, heptane, methanol; ambient, 60° C. or 35° C.; 24 hours
Description: Saturated solutions of Compound (I) in multiphasic form were created in two solutions each dichloromethane, heptane and methanol.
10 mg of Form 1 and Form 5 were added to each vial. […] was stirred at ambient conditions for a period of 24 hours, while the other heptane and methanol vials were stirred at 60° C. for 24 hours.
The remaining dichloromethane vial was stirred at 35° C. for 24 hours. The resulting material was analyzed by PXRD, before being dried with a vacuum pump overnight to dry before DSC analysis of samples.

[6] = ambient conditions (closed vial)

Form stability after storage (PXRD) ([1]; 40° C./75% RH (closed vial)): stable and maintains its form
Form stability after storage (PXRD) [1, 6]: stable and maintains its form
Form stability after storage (PXRD) ([2]; 2 weeks and 4 weeks, 40° C./75% RH, 50° C. and RT): stable and maintains its form
% Purity (HPLC) post stability studies ([2]; 40° C./75% Relative Humidity, 2 weeks): 99.3%
% Purity (HPLC) post stability studies ([2]; 40° C./75% Relative Humidity, 4 weeks): 99.6%
% Purity (HPLC) post stability studies ([2]; 50° C./Ambient % RH, 2 weeks): 99.4%
% Purity (HPLC) post stability studies ([2]; 50° C./Ambient % RH, 4 weeks): 99.7%
% Purity (HPLC) post stability studies ([2]; Room Temperature, 2 weeks): 99.2%
% Purity (HPLC) post stability studies ([2]; Room Temperature, 4 weeks): 99.1%
Structure (SMILES): CNC(=O)c1cc2ccc(N3CCCN(C)CC3)nc2n2c1nc1ccccc12 [Form 1, N-methyl-2-(4-methyl-1,4-diazepan-1-yl)benzo[4,5]imidazo[1,2-a][1,8]naphthyridine-6-carbaxomide]
Structural integrity post stability testing (NMR) ([2]; 2 and 4 weeks, 40° C./75% RH, 50° C., room temperature): maintains its structural integrity and does not degrade

solubility ([3]; acetonitrile, 40 °C, organic solvent or mixture): < 10000 µg/mL
solubility ([3]; dichloromethane, organic solvent or mixture): 200000 µg/mL (≈ 515 mM)
solubility ([3]; dimethylformamide, 40 °C, organic solvent or mixture): < 10000 µg/mL
solubility ([3]; ethanol, 40 °C, organic solvent or mixture): < 10000 µg/mL
solubility ([3]; ethyl acetate, 40 °C, organic solvent or mixture): < 10000 µg/mL
solubility ([3]; heptane, 40 °C, organic solvent or mixture): < 10000 µg/mL
solubility ([3]; majority of the thirteen solvents assessed, 40 °C, organic solvent or mixture, majority of solvents assessed): < 10000 µg/mL
solubility ([3]; methanol, organic solvent or mixture): 12500 µg/mL (≈ 32.2 mM)
solubility ([3]; organic solvent or mixture, Acetone, up to 100 volumes, heated to 40° C. if no dissolution): < 10000 µg/mL
solubility ([3]; propan-2-ol, 40 °C, organic solvent or mixture): < 10000 µg/mL
solubility ([3]; t-butylmethyl ether, 40 °C, organic solvent or mixture): < 10000 µg/mL
solubility ([3]; tetrahydrofuran, 40 °C, organic solvent or mixture): < 10000 µg/mL
solubility ([3]; toluene, 40 °C, organic solvent or mixture): < 10000 µg/mL
solubility ([3]; water, 40 °C): < 10000 µg/mL
hygroscopic nature (GVS) [4]: non-hygroscopic
mass uptake (GVS) [4]: 0.8%
Structure (SMILES): CNC(=O)c1cc2ccc(N3CCCN(C)CC3)nc2n2c1nc1ccccc12 [Compound (I), N-methyl-2-(4-methyl-1,4-diazepan-1-yl)benzo[4,5]imidazo[1,2-a][1,8]naphthyridine-6-carbaxomide]

Form stability after storage (PXRD) ([1]; 40° C./75% RH (closed vial)): transitions to Form 1
Form stability after storage (PXRD) [1, 6]: stable and maintains its form
Structure (SMILES): CNC(=O)c1cc2ccc(N3CCCN(C)CC3)nc2n2c1nc1ccccc12 [Form 2, N-methyl-2-(4-methyl-1,4-diazepan-1-yl)benzo[4,5]imidazo[1,2-a][1,8]naphthyridine-6-carbaxomide]

Form stability after storage (PXRD) ([1]; 40° C./75% RH (closed vial)): transitions to Form 1
Form stability after storage (PXRD) [1, 6]: stable and maintains its form
Structure (SMILES): CNC(=O)c1cc2ccc(N3CCCN(C)CC3)nc2n2c1nc1ccccc12 [Form 3, N-methyl-2-(4-methyl-1,4-diazepan-1-yl)benzo[4,5]imidazo[1,2-a][1,8]naphthyridine-6-carbaxomide]

Form stability after storage (PXRD) ([1]; 40° C./75% RH (closed vial)): transitions to Form 1
Form stability after storage (PXRD) [1, 6]: stable and maintains its form
Structure (SMILES): CNC(=O)c1cc2ccc(N3CCCN(C)CC3)nc2n2c1nc1ccccc12 [Form 4, N-methyl-2-(4-methyl-1,4-diazepan-1-yl)benzo[4,5]imidazo[1,2-a][1,8]naphthyridine-6-carbaxomide]

Form stability after storage (PXRD) ([1]; 40° C./75% RH (closed vial)): stable and maintains its form
Form stability after storage (PXRD) [1, 6]: stable and maintains its form
Form transition in competitive slurry (PXRD of damp slurry residue) [5]: transition from Form 5 towards Form 1
Structure (SMILES): CNC(=O)c1cc2ccc(N3CCCN(C)CC3)nc2n2c1nc1ccccc12 [Form 5, N-methyl-2-(4-methyl-1,4-diazepan-1-yl)benzo[4,5]imidazo[1,2-a][1,8]naphthyridine-6-carbaxomide]
